{"source": "patent US20170136008A1", "about": "“OXABICYCLOHEPTANES AND OXABICYCLOHEPTENES FOR THE TREATMENT OF OVARIAN CANCER” (priority 2014, published 2017)", "key": {"[1]": {"test_system": "OVCAR-8 PP2Ac shRNA-expressing cells", "test": "Cell viability (MTT) assay, OVCAR-8 PP2Ac shRNA", "assay_type": "cell-based, human", "conditions": "Homo sapiens; OVCAR-8 PP2Ac shRNA (knockdown)", "description": "(§1) Cell survival was measured by the 3-(4,5-dimethylthiazol-2-yl)-2,5-diphenyltetrazolium bromide (MTT, Invitrogen) assay. Cells were seeded at a density of 5,000 cells per well in 96-well plates and incubated at 37° C. in humidified 5% CO2 for 24 hours. The 50% inhibitory concentration (IC50) values were defined as the drug concentrations required to reduce cellular proliferation to 50% of the untreated control well. […] All MTT assays were carried out according to the manufacturer's instructions (Molecular Probes, Eugen, Oreg.). Absorbance values were determined at […] on a Spectra Max 250 spectrophotometer (Molecular Devices, Sunnyvale, Calif.). All MTT assays were performed in triplicate. […] Cells were treated with both drugs for 72 h. Cell viability was analyzed via the MTT assay as described above. Experiments were performed in triplicate, and the data are presented as a percent mean±SD.\nTo stably knockdown expression of PP2AC, a pLKO.1-puro plasmid-based […] shRNA targeting the sequence: […] (clone ID:TRCN0000002483, Sigma-Aldrich) was employed (PP2AC-shRNA). Additionally, a non-targeting shRNA plasmid (NT-shRNA) that targets no known human sequence was utilized as a control. […]"}, "[2]": {"test_system": "HEK 293 human embryonic kidney cell lines overexpressing Pgp, MRP1, or ABCG2", "test": "IC50 in ABC transporter-overexpressing HEK 293 lines", "assay_type": "cell-based", "conditions": "HEK 293 overexpressing Pgp", "description": "When HEK 293 human embryonic kidney cell lines overexpressing Pgp, MRP1, or ABCG2 (Robey, R. W. et al. 2005) were treated with equal concentration of LB100, the IC50s of the transfected lines were not different compared with parent (non-transporter-expressing) cells or in the presence of an inhibitor (tariquidar) (FIG. 5)."}, "[3]": {"test_system": "BRCA1, Wee1, Chk1, γH2AX phosphorylation in SKOV-3 tumors", "test": "Ex-vivo western blot of intraperitoneal tumors", "assay_type": "in vivo, mouse", "conditions": "LB100 alone 1.5 mg/kg, 4 h", "description": "Whole cell and homogenized tumor tissues were lysed in NP-40 lysis buffer [50 mM Tris/HCl, pH 7.4, 150 mM NaCl and 1% Nonidet P40, supplemented with Complete Protrase Inhibitor Cocktail tablets and PhosStop phosphatase inhibitors (Roche, Indianapolis, Ind.)] and prepared as previously described (Madigan, J. P. et al. 2009). Protein (40 μg) was resolved on SDS/PAGE (12% or 15% gels) and transferred onto Immobilon PVDF membrane. The membrane was then blocked for 1 hour at room temperature in 5% (w/v) non-fat milk in TBS-Tween and probed overnight with primary antibodies. […]\nFive- to seven-week-old female nude athymic mice (nu/nu) were obtained from NCI (Frederick, Md.), maintained in accredited animal facilities and used as stipulated by the U.S. Public Health Service Policy on Humane Care and Use of Laboratory Animals, in accordance with institutional reviews (http://oacu.odnih.gov). […] Tumor growth was measured twice a week via bioluminescence imaging (BLI) as previously described (Bakhsheshian, J. et al. 2013). […] Relative intensity of the BLI signal for each mouse was calculated by dividing the total luminescence for each session by the total luminescence measured on day 1 of treatment. […] Toxicity of the treatment regimens was assessed by the degree of weight loss and the overall health status was continuously monitored by a veterinarian on staff. […]"}, "[4]": {"test_system": "ovarian cancer cell lines", "test": "MTT cytotoxicity assay, ovarian cancer cell line panel", "assay_type": "cell-based", "conditions": "Homo sapiens, SK-OV-3; ovarian lines other than SKOV-3", "description": "as §1\nSKOV-3 and OVCAR-8 cells have previously been described as p53 null and harboring an inactivating p53 mutation, respectively (Debernardis, D. et al. 1997). […] The […] carry a BRCA2 missense (n) and STOP (s) mutation, respectively (Langdon, S. P. et al. 1988)."}}}
{"smiles": "CN1CCN(C(=O)C2C(C(=O)O)[C@H]3CC[C@@H]2O3)CC1", "note": "(stereo partly shown) [LB100]", "values": [{"measurement": "IC50", "setting": "[1]", "value": "3.9 ± 0.9", "unit": "µM"}, {"measurement": "IC50s of transfected lines compared with parent cells or in the presence of tariquidar", "setting": "[2]", "value": "not different"}, {"measurement": "phosphorylation of BRCA1, Wee1, Chk1, γH2AX", "setting": "[3]", "value": "induced hyperphosphorylation"}, {"measurement": "IC50", "setting": "[4]", "value": 5.7, "unit": "µM"}]}
